From US20200370080A1, “ENANTIONSELECTIVE ENZYMATIC SULFOXIDATION OF CHIRAL ARYLSULFIDES” (Bayer Aktiengesellschaft, priority 2017, published 2020)

What was measured:
[1] = system: E. coli cells; assay: toxicity of educt and product: growth of the production strain at different concentrations; format: cell-based
Experimental: A person skilled in the art knows how to determine the maximum rate at which the enzyme can process the substrate and thus how much substrate can be added to a given reaction continuously or in a given time interval. To understand the toxicity of educt and product the growth rate of the production strain is determined in presence of different educt and product concentration.

[2] = system: styrene monooxygenase StyA/StyB from A. baylyi; assay: in vitro sulfoxidation of arylsulfide substrates by purified StyA (oxygenase) with excess StyB (reductase), HPLC analysis; format: biochemical, Acinetobacter baylyi sp. ADP1; settings: for ee %: enantiomeric excess of sulfoxide formed, abs. configuration S; for yield %): enzymatic conversion to sulfoxide, 2 mM substrate (1 mM in case of clouding), purified StyA with excess StyB
Experimental: In order to do so, the StyA unit from Acinetobacter sp. ADP1 was cloned into a pET-vector inducible with IPTG and expressed in E. coli BL21 pLysS grown in LB medium (10 g/l tryptone, 5 g/l yeast extract, 10 g/l or 20 g/l NaCl, 100 μg/ml ampicillin, 50 μg/ml Chloramphenicol). For the expression a 5 ml overnight culture was used as inoculum for a fermenter with […] or a flask with 500 ml medium. The cells were cultured at 37° C. until the culture reached an optical density of 0.6 which was the threshold for induction of recombinant gene expression using IPTG (0.1 mM). The culture was performed for another 18 h at 20° C. […] The cells were harvested and the cellular walls were disrupted using a French press. […] The target protein was purified for the subsequent characterization.
The StyB unit from Acinetobacter baylyi sp. ADP1 was expressed in a similar fashion.
In order to test the activity the StyB unit (reductase) was employed in excess to supply the StyA unit (oxygenase) with sufficient reduced FAD. Therefore, NADH was produced by a format-dehydrogenase from format and NAD in the respective enzymatic reaction.
The enzyme conversion rate was probed every minute for 15 min for the kinetic analysis. If possible, i.e. soluble, 2 mM substrate were employed. In case of clouding 1 mM substrate was employed. The substrate was dissolved in ethanol. Reactions in the probes were stopped with a 1:1 mixture of ice-cold methanol and acetonitrile and afterwards analyzed using HPLC.
The educt and the product were analyzed on an Agilent 1100 HPLC device.

[3] = resting cell activity of whole-cell biocatalyst (E. coli JM101 pStyAB_ADP1_lac); format: cell-based; settings: E. coli JM101, M9 minimal medium, 4.8 h after induction with 1 mM IPTG
Experimental: In detail, the styrene monooxygenase subunits StyA and StyB were expressed in E. coli JM101 cultivated in M9 minimal medium from the pStyAB_ADP1_lac vector. To find the maximum specific activity samples were taken after previously defined time points after addition of the inducer (1 mM IPTG). Cells were retrieved from the actively growing culture and used for the determination of the resting cell activity. As shown in FIG. 3 the specific activity increased steadily from the time point of induction and reached a maximum of 450±30 U/gcdw 4.8 h after induction.
In detail, the specific activity was quantified as follows: StyA and StyB were expressed in E. coli JM101 carrying the pStyAB_ADP1_lac vector. Cells were cultivated in M9 minimal medium and induced at an OD of 0.6-0.8. […]
Successful separation of the product i.e. the S-enantiomer of 2-chloro-4-(methylsulfinylmethyl)pyridine was achieved on a Dionex UltiMate 3000 HPLC system (Thermo Scientific) equipped with a non-polar HPLC column with C18 matrix (Accucore C18, 3×150 mm, 2.6 μm particle size, Thermo Scientific). […] The organic compounds were detected by absorption using diode array detector (DAD) at a wavelength of 210 nm. […]

Row | Molecule | ee % [2] | yield %) [2] | further results
1 | C[S@+]([O-])Cc1ccnc(Cl)c1 [2-Chloro-4-((methyl-S-sulfinyl)methyl)pyridine] |  |  | toxicity of the product compared with the substrate ([1]; E. coli cells): significantly lower
2 | CSCc1ccnc(Cl)c1 [2-chloro-4-(methylsulfanylmethyl)pyridine] |  |  | substrate concentration that entirely inhibited the growth of the cells ([1]; E. coli cells expressing StyA and StyB): above 10 mM
3 | CSc1ccccc1 [Ph—S—CH3, phenyl methyl sulfide] | 99.3% | 48% | 
4 | C=CSc1ccccc1 [Ph—S—CH═CH2, phenyl vinyl sulfide] | 99.7% | 40% | 
5 | CSc1ccc(Br)cc1 [p(Br)—Ph—S—CH3, 4-bromophenyl methyl sulfide] | 98.1% | 58% | 
6 | CSc1ccc(C)cc1 [p(CH3)—Ph—S—CH3, 4-methylphenyl methyl sulfide] | 97.6% | 42% | 
7 | CSc1ccc(Cl)cc1 [p(Cl)—Ph—S—CH3, 4-chlorophenyl methyl sulfide] | 95.5% | 34% | 
8 | CSc1ccc(F)cc1 [p(F)—Ph—S—CH3, 4-fluorophenyl methyl sulfide] | 99.0% | 55% | 
9 | styrene monooxygenase subunits StyA and StyB: two-component styrene monooxygenase (SEQ ID NO 5 and 6) expressed in E. coli JM101 from the pStyAB_ADP1_lac vector (protein, listed as Acinetobacter baylyi) chain 1: MRRIAIVGAGQSGLQLGLSLLDTGYDVTIVTNRTADQIRQGKVMSSQCMFHTALQTERDVGLNFWEEQCPAVEGIGFTLVSPETGKPAFSWSARLERYAQSVDQRVKMPYWIEEFERRGGKLIIQDVGIDELEQLTTEYELVLLAAGKGEVVKQFVRDDERSTFDKPQRALALTYVTGMKPMSPYSRVTFNVIPGVGEYFCFPALTVTGPCEIMVFEGIPGGPMDCWQDAKTPEQHLQMSKDILNTYLPWEAERCENIEITDAGGYLAGRFPPSVRKPILTLPSGRQVFGMADALVVNDPITGQGSNNAAKCSKIYFDAILAHDTQSFTPEWMQQTFERYWSYAEKVVAWTNSLLVPPQPQMIDVLAAASQNQAIASTIANNFDDPRNFSPWWFDAEQAQHFIESKSCQKVA chain 2: MNINTSHELGLKPIDTENPREIRNLLGQFATGVTVITTRGRDGRKIGMTANSFSSLSLDPPLILWSLSKTAPSLPDFTEAEYFAIHMLAQEHHSLSGHFARGSEDKFASIAHRECERGLPLLEDVLATLVCKNINQYEGGDHLIFIGQIEHYQQRIGEPLVFHAGKYRIAAEHPELSA |  |  | maximum specific activity [3]: 450±30 U/gcdw
